Results: patent publication US8257714B2, “Compositions and methods for immunotherapy of cancer and infectious diseases” (priority 2003, dated 2012)

Legend:
[1] = system: DC-activity induced by ARP preparations; assay: Effect of divalent cations on DC-activity of ARP; assay type: cell-based, mouse; conditions: mM-μM concentration range
From the text: Some differences exist in the interaction of copper and zinc with ARP and must be explored further. […] The former was inhibited by both-calcium and magnesium ions, while the latter—only by magnesium ions.

[2] = system: Plasmodium yoelii; assay: Malaria in mice; assay type: in vivo, C57BL/6 mice; conditions: 40 mg/kg i.p. Days 1-5
Description: Groups of male C57BL/6 mice were inoculated i.v. on Day 0 with an infectious dose of Plasmodium yoelii. Groups of mice were administered, by i.p. injection, one of three concentrations of the test material (0.1, 1.0 or 10.0 ng/mouse/day) or vehicle on Day 1 and again on Days 2 through 5, for a total of five doses. An additional assay control group of mice was administered approximately 40 mg of Chloroquine per kg of body weight by i.p. injection on Days 1 through 5 as well.

[3] = system: Candida albicans; assay: Candida albicans infection in mice; assay type: in vivo, CDI mice
Description: Groups of female CDI mice were inoculated intravenously (i.v.) on Day 0 with an infectious dose of Candida albicans calculated to provide 60-100% mortality in the control group. Groups of mice were administered, by i.p. injection, one of three concentrations of the test material (0.1, 1.0 or 10.0 ng/mouse/day) or vehicle on Day 0, approximately 1.5 hours following infectious challenge, and again on Days 1 through 4, for a total of five doses. An additional assay control group of mice was administered approximately 80 mg of fluconazole per kg of body weight by oral gavage approximately 1, 24, 48 and 72 hours following infectious challenge.

[4] = system: S-180 tumor; assay: Murine S-180 tumor model; assay type: in vivo, BALB/c mice; conditions: GM-CSF alone, 20 ng/mouse/day
Description: In a preferred embodiment, The S-180 cell line (ATCC CCL 8, batch F4805) is chosen as the tumor model because the same line is capable of growing both in animals and in culture (in both serum-containing and serum-free conditions). Tumors are established in mice (BALB/c) by injection of cell suspensions obtained from tissue culture. Approximately […] to 3×10^6 cells are injected intra-peritoneally per mouse. The tumor developed as multiple solid nodules at multiple sites within the peritoneal cavity and cause death in most of the animals within 10 to 15 days. In addition to monitoring animal survival, their condition is qualitatively assessed as tumor growth progressed and used to generate a tumor index as described in the following paragraph.
To establish an estimate of drug activity in tumor model experiments, an index can be developed that combines observational examination of the animals as well as their survival status. […]
The S-180 cell line (ATCC CCL 8, batch F4805) was chosen as the tumor model because the same line was capable of growing both in animals and in culture (in both serum-containing and serum-free conditions). […] In addition to monitoring animal survival, their condition was qualitatively assessed as tumor growth progressed and used to generate a tumor index. […]

[5] = system: Mouse sarcoma 180 cells; assay: NK cell-mediated cytotoxicity (NK-CMC) assay, LGL/S180 co-culture; assay type: cell-based; conditions: wide range of concentrations, presence and absence of IL-2 (125 U/ml)
Description: In one embodiment, a NK cell assay is used to assess ARP-induced cytotoxic activity of NK-like cells (see section 12.2). Briefly, by way of example but not limitation, a NK cell assay can be carried out as follows: large granular lymphocytes (LGLs) are co-cultured with tumor cells at various ratios (effector to target ratio) for four days at 37° C., 5% CO2. […] The culture is terminated at the end of day 4 and vitally stained using a MTT cell viability quantification assay (see Mossman, T. J. Immunol. Methods 65: 55 (1983); and Sigma Chemical MTT (M5655) product application note). Culture media is aspirated and the remaining cells are washed and replaced with DMEM/F12 plus FCS, containing MTT. The cells are further incubated for 4-5 hours at 37° C. Absorbance is measured with the aid of a plate reader. Decreased absorbance indicated a decrease in the number of viable cells per well (i.e., cytotoxicity). Absorbance is measured again after the MTT is solubilized by replacement of the medium with 2-propanol containing HCl, which gives a uniform color throughout the well. NK-inducing activity is calculated relative to negative (PBS/BSA) and positive (internal standard) controls.
Spleens (10-15 per experiment) were aseptically removed from male Balb/C mice 6-10 weeks of age. Splenocytes were “squeezed” out of spleens using 2 sterile glass microscope slides. Cells were collected in approximately 10 ml of DMEM/F 12 containing 10% fetal calf serum (FCS) and gentamicin (50 μg/ml). Single cell suspensions were generated by passing collected cells through a 70 μm nylon mesh screen. After washing the cell pellet once with PBS (centrifuged at 675×g for 5 min), red blood cells were lysed by brief hypotonic shock (i.e. exposure to sterile distilled, deionized water, followed immediately with appropriate volumes of 10×PBS to return to isotonicity). Remaining cells were centrifuged and resuspended in DMEM/F12+10% FCS and transferred to 75 cm^2 flasks each containing 25 mls DMEM/F12+10% FCS (cells from 5 spleens per flask). The cells were incubated for 60 min. at 37° C. to selectively remove readily adherent cells (mainly fibroblasts and macrophages). After the incubation, the flasks were gently shaken and the non-adherent cells were removed, pelleted by centrifugation, and resuspended in DMEM/F12 (no supplements) (1.0 mL/10^8 cells). A 1.0 mL volume of these cell suspensions were carefully layered onto a 70%/60%/40% (2 mL/4 mL/4 mL) Percoll™ gradients in 15 ml centrifuge tubes and centrifuged for 30 min at 675×G. The cells which sediment at the 40/60 interface represent primarily large granular lymphocytes (LGLs), enriched with NK cells. These cells were carefully removed with a pasteur pipet, centrifuged, washed once with PBS and resuspended in approximately 5 mL DMEM/F12 supplemented with gentamicin (50 μg/mL) and 10% fetal calf serum. Cell counts and appropriate dilutions of LGL cells were made with these cells, as described below. For convenience this LGL cell preparation is interchangeably referred to as NK cells.
Mouse sarcoma 180 cells were seeded into 96 well plates at a density of 5×10^3 cells per well in 100 μl DMEM/F12, supplemented with 10% FCS and gentamicin (50 μg/mL). […] NK cells were added in 100 μL of supplemented DMEM/F12 at designated densities: 0 NK cells/well; 5×10^4 NK cells/well (1:10 target/effector ratio); 1.25×10^5 NK cells/well (1:25 target/effector ratio); 2.5×10^5 NK cells/well (1:50 target/effector ratio); and, 5×10^5 NK cells/well (1:100 target/effector ratio). (Note: routinely, only the 1:50 and 1:100 ratios were used for screening purposes. IL2 was added as a media supplement with final concentration of 125 U/mL.). Co-cultures were incubated for 4 days at 37° C., 5% CO2, and terminated and vitally stained using a MTT cell viability quantification assay (see Mossman, T. J. Immunol. Methods 65:55 (1983); and Sigma Chemical MTT (M5655) product application note). […]

[6] = system: freshly isolated dendritic cells (CD11c+ splenocytes); assay: Dendritic cell (DC) assay: IL12 release from freshly isolated dendritic cells; assay type: cell-based, BALB/c mice; conditions: tested for synergism and inhibition
From the text: In a preferred embodiment, dendritic cell (DC) assay is used to follow interleukin-12 (IL-12) release from freshly isolated dendritic cells as an index of DC activation (see section 12.3). […] Briefly, by way of example but not limitation, a DC assay can be carried out as follows: freshly isolated dendritic cells (CD11c^+ splenocytes, e.g., isolated from the spleens of BALB/c mice within ten hours of assaying the activity) are suspended at a density of 0.5×10^6 cells per mL in cytokine supplemented culture media (GM-CSF, 1.0 ng/ml; IL-4, 1.0 ng/ml; IFNg, 3.0 ng/ml; anti mouse CD40, 0.5 mg/ml). […] Mouse IL-12 release from the dendritic cells (CD11c^+ splenocytes) is then measured using ELISA.
To follow the activity in semi-purified preparations of BEX, an assay which follows IL12 release from freshly isolated dendritic cells (DCs) as an index of DC activation was developed. This activity is highly correlated with both NK-CMC in vitro and anti-tumor activity in vivo.
DCs were isolated from the spleens of male BALB/c mice 8-12 weeks of age (Harlan Bioproducts for Science, Indianapolis, Ind.), using the magnetic assisted cell separation (MACS) system purchased from Miltenyi Biotech. In summary: Spleens were aseptically removed from mice and placed into a petri dish containing 5 mL holding media (DMEM/F12 supplemented with 10% FCS and antibiotics). Each spleen was then injected with ˜0.5 mls collagenase D solution (1 mg/mL in 10 mM Hepes-NaOH, pH 7.4, 150 mM NaCl, 5 mM MgCl2, 1.8 mM CaCl2), placed into 5-10 mL collagenase D, cut into 5-6 pieces and incubated at 37° C. for 45-60 min. Collagenase-digested spleens were then processed with glass slides and passed through a 70 μm nylon mesh cell strainer. After the strainer was flushed with 40 mL culture media, cells were centrifuged (8 min @ 200×G), suspended in 1 mL PBS and subjected to red blood cell lysis by incubating the cell suspension for 5 min at room temperature in 10 mL lysis buffer (155 mM NH4Cl, 10 mM KHCO3, 0.1 mM EDTA), followed by dilution in PBS to 50 mL and centrifugation (8 min @ 200×g). The splenocytes were then suspended in 10 mL MACS buffer (PBS pH 7.2, supplemented with 2 mM EDTA and 0.5% BSA), passed through a 40 μm nylon mesh cell strainer which was flushed with 40 mL MACS buffer. A preliminary cell count was taken at this time, prior to centrifugation (8 min @ 200×G). The splenocytes were suspended at a density of 10^8 cells per 400 μL MACS buffer. Paramagnetic MicroBeads coated with anti-CD11c^+ antibody were mixed with the splenocyte suspension (100 μL per 10^8 cells), incubated at +4° C. for 15 min, washed, suspended in 1.0 mL MACS buffer and passed through a MS+ separation column placed within a strong magnetic field. CD11c^+ cells were retained in the column whereas CD11c^− cells were washed off the column as the flow-through cell fraction. CD11c^+ cells were then collected by removing the column out of the magnetic field and flushing the column twice with 1 mL of MACS buffer. CD11c^+ cells were washed once with culture media and suspended at a density of 0.5×10^6 cells per mL in cytokine supplemented culture media {DMEM/F12 supplemented with 10% FCS and gentamicin containing mouse GM-CSF (1 ng/mL), mouse IL-4 (1 ng/mL), mouse IFNγ (3 ng/mL) and anti mouse CD40 (0.5 mg/mL)}.
Mouse IL12 release from CD11c^+ splenocytes was measured using ELISA. Briefly, CD11c+ cell culture supernatants were sampled following an overnight incubation (usually 15-18 hrs). Media samples ([…]) were added to ELISA plates coated with anti mouse IL12 (p70) capture antibody (R&D #MAB419; 250 ng in 100 μL per well) and incubated either at 37° C. or room temperature for 2 hrs. The ELISA plates were washed extensively with wash buffer after which 100 μL per well of detection antibody/detection reagent (biotinylated anti-mouse IL12; R&D #BAF419 at 50 ng/mL and streptavidin-HRP) was added. […]

[Ca+2].[Cl-].[Cl-] [CaCl2]
inhibition of DC-activity of crude ARP preparations [1]: did not

CCN(CC)CCCC(C)Nc1ccnc2cc(Cl)ccc12 (centres unmarked) [Chloroquine]
Parasitized Erytthrocytes % [2]: 12%
Survival (Days) ± SD [2]: 37.0 ± 0.7 days

[Cl][Cu][Cl] [CuCl2]
inhibition of DC-activity of crude ARP preparations [1]: showed inhibition of activity

OC(Cn1cncn1)(Cn1cncn1)c1ccc(F)cc1F [Fluconazole, fluconazole]
Percent Mortality ([3]; ~80 mg/kg oral gavage): 0%
Mean Survival Time ([3]; ~80 mg/kg oral gavage 1, 24, 48 and 72 hours after challenge, all animals): 14.0 days

[Cl-].[Cl-].[Mg+2] [MgCl2]
inhibition of DC-activity of crude ARP preparations [1]: did not

[Cl-].[Cl-].[Zn+2] [ZnCl2]
inhibition of DC-activity of crude ARP preparations [1]: showed inhibition of activity

GM-CSF: granulocyte macrophage-colony stimulating factor
survivorship versus sham injections [4]: followed similar survivorship curves

B1: IL-10: interleukin (protein, UniProt P18893 19-178, looked up)
Interleukin-10: SRGQYSREDNNCTHFPVGQSHMLLELRTAFSQVKTFFQTKDQLDNILLTDSLMQDFKGYLGCQALSEMIQFYLVEVMPQAEKHGPEIKEHLNSLGEKLKTLRMRLRRCHRFLPCENKSKAVEQVKSDFNKLQDQGVYKAMNEFDIFINCIEAYMMIKMKS
NK-CMC Activity [5]: −
DC mIL12 Release [6]: inhibitory
